Measured values as given in patent US11185520B2, “Composition comprising at least one water-soluble pharmaceutically acceptable salt of elafibranor having improved intestinal absorption” (NASHPHARM, priority 2016, dated 2021).
≈ marks a conversion by molar mass, not a printed value. Where “and” joins values, the source holds several entries; their conditions need not be identical. Equal values may be shown once.

Legend:
[1] = Thermodynamic solubility of elafibranor in aqueous medium; format: physicochemical
Protocol: The thermodynamic solubility of the basic elafibranor is studied over a period of 24 hours and 72 hours in various aqueous buffers in the presence or not of surfactants. Batch number EM0274L2 is used for this work. After 24 hours and 72 hours of incubation at ambient temperature (22°−24° C.), the solutions are sampled and then filtered over 0.2 μm polycarbonate filters in flasks for LCMS analyses, and diluting once in DMSO before stirring for 2 minutes (vortex or sonification).

[2] = Solubility test on various elafibranor salts; format: physicochemical; conditions: for Solubility in aqueous medium / Solubility: listed as Elafibranor (GFT505) Amorphous free basic
[3] = all clinical trials; cited from earlier work
[4] = test system: non-alcoholic steatohepatitis NASH; conditions: cited from earlier work
[5] = Buffer pH 4.6, ambient temperature (22-24° C.)
[6] = Buffer pH 7.4, ambient temperature (22-24° C.)
[7] = Buffer pH 8.5, ambient temperature (22-24° C.)
[8] = Polyethylene glycol 400, ambient temperature (22-24° C.)
[9] = Propylene glycol, ambient temperature (22-24° C.)

Structure (SMILES): CSc1ccc(C(=O)/C=C/c2cc(C)c(OC(C)(C)C(=O)O)c(C)c2)cc1 [elafibranor, 2-[2,6 dimethyl-4-[3-[4-(methylthio)phenyl]-3-oxo-1(E)-propenyl]phenoxyl]-2-methylpropanoic acid]
- Solubility after 24 hours [1, 5]: 44 µg/mL (≈ 0.114 mM)
- Solubility after 72 hours [1, 5]: 110 μM and 0.042 mg/ml
- Solubility after 24 hours [1, 6]: 194 µg/mL (≈ 0.505 mM)
- Solubility after 72 hours [1, 6]: 0.234 mg/mL (≈ 0.609 mM)
- Solubility after 24 hours [1, 7]: 1701 µg/mL (≈ 4.42 mM)
- Solubility after 72 hours [1, 7]: 1.644 mg/mL (≈ 4.28 mM)
- Solubility after 24 hours [1, 8]: 15023 µg/mL (≈ 39.1 mM)
- Solubility after 72 hours [1, 8]: 15.774 mg/mL (≈ 41 mM)
- Solubility after 24 hours [1, 9]: 12905 µg/mL (≈ 33.6 mM)
- Solubility after 72 hours [1, 9]: 13.506 mg/mL (≈ 35.1 mM)
- Solubility in an aqueous medium ([1]; in words): low
- Effect of addition of cosolvent on solubility ([1]; propylene glycol or PEG 400): significantly improves the solubility
- Solubility in aqueous medium ([2]; Buffer pH 4.6, ambient temperature): 44 µg/mL
- Solubility in aqueous medium ([2]; Buffer pH 7.4, ambient temperature): 194 µg/mL
- Solubility in aqueous medium ([2]; Buffer pH 8.5, ambient temperature): 1701 µg/mL
- Solubility ([2]; Polyethylene glycol 400, ambient temperature): 15023 µg/mL
- Solubility ([2]; Propylene glycol, ambient temperature): 12905 µg/mL
- Solubility (according to Ph. Eur.) ([2]; aqueous medium, ambient temperature, descriptive term): Very low solubility
- Tolerance profile [3]: very good tolerance profile
- Biochemical markers of hepatic malfunctioning (ALAT, ASAT, γGT, ALP) [4]: improvement
